Experiments:
[1] = test system: pancreatic NTX tumors; test: Chemoresistance of tumor cell subpopulations in mice bearing pancreatic NTX tumors
Protocol: Mice then received twice weekly intraperitoneal dosing of 15 mg/kg irinotecan or 25 mg/kg gemcitabine, respectively, for a period of approximately 20 days before they were euthanized for tumor resection and cellular analysis.
Harvested tumors were then dissociated and constituent single cells were analyzed by flow cytometry.

[2] = test system: colorectal NTX tumors; test: Chemoresistance of tumor cell subpopulations in mice bearing colorectal NTX tumors; format: in vivo; conditions: 15 mg/kg twice weekly
Protocol: To assess chemoresistance of tumor cell subpopulations, in vivo cohorts of mice bearing NTX colorectal tumors were randomized into two groups, such that the average tumor volume for each group was roughly equal. The groups were then treated twice weekly with either 15 mg/kg irinotecan or an equivalent volume of vehicle buffer. Tumor volumes and animal health were monitored and recorded twice weekly, a day prior to each injection.

Row | Structure (SMILES) | tumor volume (growth of treated tumors) ([1]; 25 mg/kg intraperitoneal twice weekly, vs vehicle-treated tumors that continued to grow unabated, FIG. 25A) | residual tumor cell marker phenotype (CD46 expression) ([1]; 25 mg/kg twice weekly, flow cytometry of harvested tumors, vehicle vs treated, FIG. 25B) | frequency of cells with TPC phenotype (CD46hi CD324+ CD66c-) among live human cells, treated vs saline-treated ([2]; flow cytometry of harvested tumors, FIGS. 24B and 24C) | CD66c phenotype of residual cells among the CD46hi CD324+ population ([2]; flow cytometry, in vehicle-treated tumors most residual cells were CD66c+, FIG. 24D)
1 | Nc1ccn([C@@H]2O[C@H](CO)[C@@H](O)C2(F)F)c(=O)n1 [gemcitabine] | decreased in volume | enrichment for tumor cells expressing markers indicative of TIC | – | –
2 | CCc1c2c(nc3ccc(OC(=O)N4CCC(N5CCCCC5)CC4)cc13)-c1cc3c(c(=O)n1C2)COC(=O)[C@]3(O)CC [irinotecan] | – | – | more than 2.5 fold | most residual cells were CD66c^−

— patent US9778264B2, “Identification and enrichment of cell subpopulations” (STEM CENTRX, INC., priority 2010, dated 2017)
